Tests used:
HSV-1 strain WT-51 = experiment: HSV-1 skin infection mouse model (in vivo test); design: species or system HR-1 hairless mouse; details: for Lesion inhibitory ratio (%): oral twice a day for 5 days
Description: Using a cutaneous HSV-1 infection mouse model prepared in accordance with the method of H. Machida et al. (Antiviral Res., 1992, 17, 133-143), in vivo activity of the pharmaceutical composition of the present invention was tested. The skin of each HR-1 hairless mouse [female, 7 weeks of age] was scratched lengthwise and breadthwise several times using a needle and a virus suspension (HSV-1 strain WT-51, 1.5×10^4 PFU/15 μl) was dropped to the scarified region for infection, while anesthetized with diethyl ether.
Regarding the compounds to be tested, VCV was used as the polymerase inhibitor and made into a methyl cellulose suspension, the compound of Preparation 2, N-(4-methylphenyl)-N-(2-{[4-(1,3-oxazol-4-yl)phenyl]amino}-2-oxoethyl)tetrahydro-2H-thiopyran-4-carboxamide 1,1-dioxide, which is described later, was used as the helicase-primase inhibitor and made into a methyl cellulose suspension, and they were orally administered at the doses of the following table twice a day for 5 days starting after 3 hours of the infection. The symptom of the skin lesion caused by HSV-1 infection were classified in the following scores for 17 days:
Score 0: no signs of infection.
Score 1: localized, barely perceptible small vesicles.
Score 2: slight vesicle spread.
Score 3: large patches of vesicles formed.
Score 4: zosteriform vesicles.
Score 5: large patches of ulcers formed.
Score 6: zosteriform with severe large ulcers.
Score 7: hind limb paralysis or death.
The AUC value was calculated from each group's mean disease score, and the disease inhibitory rate of the group administered with each test compound to the placebo group was calculated using the AUC.
In the same manner as described in the above, VCV was used as the polymerase inhibitor and the compound of Preparation 27, N-(2,6-dimethylphenyl)-N-(2-{[4-(1,2,4-oxadiazol-3-yl)phenyl]amino}-2-oxoethyl)tetrahydro-2H-thiopyran-4-carboxamide 1,1-dioxide, which is described later, was used as the helicase-primase inhibitor, with the results shown in the following table.

[1] = target: T1, HSV-1 helicase-primase complex (Human herpesvirus 1, UniProt P10189+P10236); experiment: Helicase-primase inhibitory activity (DNA-dependent ATPase activity, Malachite Green); type: biochemical
T1 construct: made in house; host or cells: Baculovirus expression; The baculoviruses came from Dr. Nigel D. Stow (MRC, UK)
Description: Using an Baculoviruses for expressing respective proteins of UL5, UL52 and UL8 which constitute an HSV-1 helicase-primase complex (obtained from Dr. Nigel D. Stow, Medical Research Council, UK), a recombinant HSV-1 helicase-primase complex was prepared by the method described in a report of Crute et al. (J. B. C., 1991, Vol. 266, p. 21252-21256). Detection of DNA-dependent ATPase activity of the HSV-1 helicase-primase complex was carried out in reference to the method described in a report of Crute et al. (J. B. C., 1991, Vol. 266, p. 4484-4488). In brief, 520 ng of the HSV-1 helicase-primase complex was allowed to undergo the reaction at 30° C. for 30 minutes in a reaction liquid containing 20 μg/ml of heat-denatured bovine sperm DNA and 2 mM ATP, and then concentration of phosphoric acid formed through the hydrolysis of ATP into ADP and monophosphate by the activity of ATPase was determined by adding the same volume of Malachite Green reagent (0.03% Malachite Green, 0.1% ammonium molybdate, 4.8% sulfuric acid) and measuring the resulting absorbance at 650 nm. The 50% inhibition concentration (IC50 value) of each compound to be tested for HSV-1 helicase-primase DNA-dependent ATPase was calculated as the concentration which halves the phosphoric acid concentration at the time of not adding the compound.

T1 sequence (P10236 whole entry): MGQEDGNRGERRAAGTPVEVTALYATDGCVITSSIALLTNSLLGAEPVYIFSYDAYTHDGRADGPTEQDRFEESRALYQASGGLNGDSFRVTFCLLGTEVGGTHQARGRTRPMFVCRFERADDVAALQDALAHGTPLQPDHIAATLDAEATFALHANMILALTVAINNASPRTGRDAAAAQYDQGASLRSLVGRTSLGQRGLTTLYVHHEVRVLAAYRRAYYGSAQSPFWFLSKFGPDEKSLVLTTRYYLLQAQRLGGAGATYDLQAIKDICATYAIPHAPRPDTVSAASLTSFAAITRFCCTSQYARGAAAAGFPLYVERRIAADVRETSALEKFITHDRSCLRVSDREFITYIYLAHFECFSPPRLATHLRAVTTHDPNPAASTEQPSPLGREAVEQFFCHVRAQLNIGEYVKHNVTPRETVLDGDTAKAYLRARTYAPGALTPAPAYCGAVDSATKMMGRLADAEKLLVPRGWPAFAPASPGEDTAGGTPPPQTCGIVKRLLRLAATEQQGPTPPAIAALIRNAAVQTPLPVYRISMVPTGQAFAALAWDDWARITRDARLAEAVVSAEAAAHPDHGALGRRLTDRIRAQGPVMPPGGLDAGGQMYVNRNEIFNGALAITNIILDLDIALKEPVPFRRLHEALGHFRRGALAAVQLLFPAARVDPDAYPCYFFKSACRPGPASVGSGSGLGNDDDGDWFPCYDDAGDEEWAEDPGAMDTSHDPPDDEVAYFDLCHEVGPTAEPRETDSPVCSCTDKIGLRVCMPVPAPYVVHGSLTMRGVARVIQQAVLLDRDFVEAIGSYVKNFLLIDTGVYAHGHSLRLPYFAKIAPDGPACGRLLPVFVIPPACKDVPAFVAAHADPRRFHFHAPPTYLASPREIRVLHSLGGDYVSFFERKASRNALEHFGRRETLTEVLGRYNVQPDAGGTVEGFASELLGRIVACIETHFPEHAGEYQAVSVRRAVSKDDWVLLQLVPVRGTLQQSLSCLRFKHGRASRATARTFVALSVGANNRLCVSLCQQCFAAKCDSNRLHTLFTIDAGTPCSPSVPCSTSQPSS
T1 sequence (P10192 whole entry, further chain): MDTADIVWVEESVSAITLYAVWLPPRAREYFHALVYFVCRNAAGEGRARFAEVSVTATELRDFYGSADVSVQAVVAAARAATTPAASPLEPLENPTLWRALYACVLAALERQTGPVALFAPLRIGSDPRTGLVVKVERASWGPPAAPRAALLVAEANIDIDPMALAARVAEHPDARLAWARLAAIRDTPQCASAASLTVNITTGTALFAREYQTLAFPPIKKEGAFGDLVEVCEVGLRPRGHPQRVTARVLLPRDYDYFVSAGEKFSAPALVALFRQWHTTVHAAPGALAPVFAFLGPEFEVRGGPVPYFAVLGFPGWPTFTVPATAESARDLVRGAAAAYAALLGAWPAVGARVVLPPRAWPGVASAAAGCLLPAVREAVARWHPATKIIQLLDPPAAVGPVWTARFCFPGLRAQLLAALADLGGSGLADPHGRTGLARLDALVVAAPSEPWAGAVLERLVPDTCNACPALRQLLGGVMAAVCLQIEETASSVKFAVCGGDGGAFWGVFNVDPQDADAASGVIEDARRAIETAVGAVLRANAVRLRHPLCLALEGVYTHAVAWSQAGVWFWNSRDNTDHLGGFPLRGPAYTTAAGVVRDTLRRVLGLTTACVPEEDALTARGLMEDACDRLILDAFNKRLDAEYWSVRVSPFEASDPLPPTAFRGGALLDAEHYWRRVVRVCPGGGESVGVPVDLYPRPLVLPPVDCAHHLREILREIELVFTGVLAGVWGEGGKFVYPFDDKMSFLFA
T1 sequence (P10189 whole entry): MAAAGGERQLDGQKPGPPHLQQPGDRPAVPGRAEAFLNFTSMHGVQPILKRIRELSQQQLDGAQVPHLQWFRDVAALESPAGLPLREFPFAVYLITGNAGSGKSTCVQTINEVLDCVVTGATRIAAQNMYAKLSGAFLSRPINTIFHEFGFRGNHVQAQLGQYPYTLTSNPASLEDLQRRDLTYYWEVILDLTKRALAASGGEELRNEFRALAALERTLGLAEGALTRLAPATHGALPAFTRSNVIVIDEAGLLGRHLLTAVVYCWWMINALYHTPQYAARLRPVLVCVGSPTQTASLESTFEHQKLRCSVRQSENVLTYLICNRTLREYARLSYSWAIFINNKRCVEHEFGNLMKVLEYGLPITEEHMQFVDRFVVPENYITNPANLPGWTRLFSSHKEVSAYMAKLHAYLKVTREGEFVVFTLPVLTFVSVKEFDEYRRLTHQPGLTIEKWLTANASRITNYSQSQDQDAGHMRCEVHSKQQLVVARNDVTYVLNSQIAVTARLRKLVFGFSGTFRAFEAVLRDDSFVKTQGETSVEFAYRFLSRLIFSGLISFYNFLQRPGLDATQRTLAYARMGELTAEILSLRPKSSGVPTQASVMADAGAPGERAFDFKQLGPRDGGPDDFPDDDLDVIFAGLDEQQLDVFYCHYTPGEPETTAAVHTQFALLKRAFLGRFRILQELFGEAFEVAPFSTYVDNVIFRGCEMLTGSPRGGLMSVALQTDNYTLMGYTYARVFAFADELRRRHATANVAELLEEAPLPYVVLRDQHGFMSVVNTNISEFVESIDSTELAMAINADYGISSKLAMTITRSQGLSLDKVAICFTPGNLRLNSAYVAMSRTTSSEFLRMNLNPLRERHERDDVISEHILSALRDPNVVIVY

Cc1ccc(N(CC(=O)Nc2ccc(-c3cocn3)cc2)C(=O)C2CCS(=O)(=O)CC2)cc1 [Preparation 2, N-(4-methylphenyl)-N-(2-{[4-(1,3-oxazol-4-yl)phenyl]amino}-2-oxoethyl)tetrahydro-2H-thiopyran-4-carboxamide 1,1-dioxide]
Lesion inhibitory ratio (%) (HSV-1 strain WT-51; Table 2, compound of Preparation 2 1 mg/kg, VCV 0 mg/kg, AUC of disease score over 17 days vs placebo): 38%
Lesion inhibitory ratio (%) (HSV-1 strain WT-51; Table 2, compound of Preparation 2 3 mg/kg, VCV 0 mg/kg): 52%
Lesion inhibitory ratio (%) (HSV-1 strain WT-51; Table 2, concomitant use: VCV 10 mg/kg + compound of Preparation 2 1 mg/kg): 76%
Lesion inhibitory ratio (%) (HSV-1 strain WT-51; Table 2, concomitant use: VCV 10 mg/kg + compound of Preparation 2 3 mg/kg): 83%
Lesion inhibitory ratio (%) (HSV-1 strain WT-51; Table 2, concomitant use: VCV 30 mg/kg + compound of Preparation 2 1 mg/kg): 86%
Lesion inhibitory ratio (%) (HSV-1 strain WT-51; Table 2, concomitant use: VCV 30 mg/kg + compound of Preparation 2 3 mg/kg): 91%
lesion inhibitory activity (in words) (HSV-1 strain WT-51; concomitant use group of VCV with the compound of Preparation 2, compared with VCV single administration): good lesion inhibitory activity in comparison with the VCV single administration group
inhibition of the lesions (in words) (HSV-1 strain WT-51; concomitant use of 30 mg/kg of VCV with 3 mg/kg of the compound of Preparation 2): almost completely inhibited the lesions
IC50 [1]: 84 nM

Cc1cccc(C)c1N(CC(=O)Nc1ccc(-c2ncon2)cc1)C(=O)C1CCS(=O)(=O)CC1 [Preparation 27, N-(2,6-dimethylphenyl)-N-(2-{[4-(1,2,4-oxadiazol-3-yl)phenyl]amino}-2-oxoethyl)tetrahydro-2H-thiopyran-4-carboxamide 1,1-dioxide]
Lesion inhibitory ratio (%) (HSV-1 strain WT-51; Table 3, compound of Preparation 27 1 mg/kg, VCV 0 mg/kg): 33%
Lesion inhibitory ratio (%) (HSV-1 strain WT-51; Table 3, compound of Preparation 27 3 mg/kg, VCV 0 mg/kg): 68%
Lesion inhibitory ratio (%) (HSV-1 strain WT-51; Table 3, concomitant use: VCV 10 mg/kg + compound of Preparation 27 1 mg/kg): 66%
Lesion inhibitory ratio (%) (HSV-1 strain WT-51; Table 3, concomitant use: VCV 10 mg/kg + compound of Preparation 27 3 mg/kg): 86%
Lesion inhibitory ratio (%) (HSV-1 strain WT-51; Table 3, concomitant use: VCV 30 mg/kg + compound of Preparation 27 1 mg/kg): 88%
Lesion inhibitory ratio (%) (HSV-1 strain WT-51; Table 3, concomitant use: VCV 30 mg/kg + compound of Preparation 27 3 mg/kg): 100%
lesion inhibitory activity (in words) (HSV-1 strain WT-51; concomitant use groups VCV 10 mg/kg + 3 mg/kg, VCV 30 mg/kg + 1 mg/kg, VCV 30 mg/kg + 3 mg/kg of the compound of Preparation 27, compared with VCV single administration): good lesion inhibitory activity in comparison with the VCV single administration group
inhibition of the lesions (in words) (HSV-1 strain WT-51; concomitant use of 30 mg/kg of VCV with 3 mg/kg of the compound of Preparation 27): completely inhibited the lesions
IC50 [1]: 110 nM

CC(C)[C@H](N)C(=O)OCCOCn1cnc2c(=O)[nH]c(N)nc21 [VCV, valacyclovir, reference compound]
Lesion inhibitory ratio (%) (HSV-1 strain WT-51; Table 2, VCV 10 mg/kg alone): 45%
Lesion inhibitory ratio (%) (HSV-1 strain WT-51; Table 2, VCV 30 mg/kg alone): 57%
Lesion inhibitory ratio (%) (HSV-1 strain WT-51; Table 3, VCV 10 mg/kg alone): 42%
Lesion inhibitory ratio (%) (HSV-1 strain WT-51; Table 3, VCV 30 mg/kg alone): 52%
